Measurements from patent US20250281509A1, “SEQUENTIAL HORMONE THERAPY TO IMPROVE SURVIVAL AND ENHANCE RESPONSE TO IMMUNE THERAPY IN MEN WITH PROSTATE CANCER” (The Johns Hopkins University, priority 2021, published 2025).
Values joined by “and” are separate entries in the source; they are usually repeats but may differ in a detail not shown here. Equal entries are not always repeated. Where two headings read alike, the source gives them in different places.

Key:
STING = STING dimerization assay (native western blot); type: cell-based, human; conditions: LNCaP vs LAPC4 cells
Experimental: (§1) Cell lysates were prepared either in 1× denaturing lysis buffer (Cell Signaling #9803) or non-denaturing lysis buffer (50 mM HEPES pH 7.4, 150 mM NaCl, 5 mM EDTA, 10% glycerol, 1% Nonidet P-40, and supplemented with phosphatase and protease inhibitors). For denaturing gels, lysates were mixed with Laemmli buffer containing β-mercaptoethanol, boiled for 5 mins and stored at −80° C. until use. Native lysates were mixed with native loading buffer (BioRad), and semi-native lysates were mixed with Laemmli buffer without beta-mercaptoethanol and stored at −80° C. without boiling. Native gels were resolved as described previously, Robitaille et al., 2016; denaturing and semi-native gels were resolved on 4-15% precast polyacrylamide gels (BioRad) followed by transfer to PVDF membrane. Membranes were blocked in 5% nonfat milk in wash buffer (Tris-buffered saline+0.1% Tween-20). After blocking, immunoblotting was performed with primary antibodies overnight at 4° C., followed by incubation with HRP-conjugated secondary antibodies for 1 h at room temperature. Blots were analyzed using the chemiluminescence method. Blots were developed using ECL Western blot detection reagent (GE Healthcare) for highly expressed proteins and Super Signal West Femto (Thermo Fisher) reagent for low expression proteins. Each experiment was repeated at least two to three times.

LNCaP cells [1] = conditions: androgen-deprived LNCaP cells, high-dose DHT
NIK, p52, RELB = assay: Immunoblotting for non-canonical NF-kappaB pathway; type: cell-based, human
Experimental: For denaturing gels, lysates were mixed with Laemmli buffer containing β-mercaptoethanol, boiled for 5 mins and stored at −80° C. until use. Native lysates were mixed with native loading buffer (BioRad), and semi-native lysates were mixed with Laemmli buffer without beta-mercaptoethanol and stored at −80° C. without boiling. […] Membranes were blocked in 5% nonfat milk in wash buffer (Tris-buffered saline+0.1% Tween-20). After blocking, immunoblotting was performed with primary antibodies overnight at 4° C., followed by incubation with HRP-conjugated secondary antibodies for 1 h at room temperature. Blots were analyzed using the chemiluminescence method. Blots were developed using ECL Western blot detection reagent (GE Healthcare) for highly expressed proteins and Super Signal West Femto (Thermo Fisher) reagent for low expression proteins. Each experiment was repeated at least two to three times.

ferritin = assay: Ferritin level by western blot; type: cell-based, human; conditions: LNCaP cells, supraphysiological levels
Experimental: as §1

CXCL10 = CXCL10 transcript and protein; type: cell-based, human; conditions: LNCaP vs LAPC4 cells
Experimental: Total RNA was extracted from cells using Trizol reagent (Thermo Fisher) as per manufacturer's instructions. cDNA was synthesized from RNA by reverse transcription using SuperScript IV reverse (Thermo Fisher). Quantitative PCR was performed on samples mixed with SYBR master mix (BioRad) and gene-specific primers using a real-time thermocycler (BioRad). Data analysis was performed using the ΔΔCt method, and fold change (2^^−ΔΔ^Ct) was calculated after double normalization with the housekeeper gene and respective untreated control. Each PCR reaction was run in triplicates.
Cell lysates were prepared either in 1× denaturing lysis buffer (Cell Signaling #9803) or non-denaturing lysis buffer (50 mM HEPES pH 7.4, 150 mM NaCl, 5 mM EDTA, 10% glycerol, 1% Nonidet P-40, and supplemented with phosphatase and protease inhibitors). For denaturing gels, lysates were mixed with Laemmli buffer containing β-mercaptoethanol, boiled for 5 mins and stored at −80° C. until use. […] Blots were analyzed using the chemiluminescence method. […]
The concentration of 17 chemokines, cytokines, and growth factors in culture supernatants of control or R1881 treated LNCaP cells was determined using the Bioplex Pro Human Cytokine 17-plex assay system (Bio-Rad) according to manufacturer's protocol. […] Data was collected on the Bio-Rad BioPlex 200 instrument and analyzed using the Bio-Plex Manager (Bio-Rad Laboratory).

autophagy = assay: Autophagy induction in PCa cell lines; type: cell-based, human
Experimental: as §1
Cells were plated on 60-mm dishes to obtain 80% confluence on the next day. Cells were transfected with tandem mRFP-GFP fluorescent-tagged LC3 (ptfLC3) (Addgene #21074). 24 h post-transfection, cells were trypsinized and plated on sterile glass-bottom dishes at a 40-50% confluency and treated with androgens. Autophagosomes are labelled as green and red dual positive punctas and autolysosomes appear as red puncta as the green puncta is pH sensitive and quenched by the acidic lysosomal pH. Cells were then imaged using a live cell Zeiss LSM780-FCS Single-point, laser scanning confocal microscope. Images were processed using the ImageJ software. Cells with predominantly yellow RFP/GFP (autophagosome) or red RFP (autolysosome) punctae were counted and analyzed from at least twenty fields. Each experiment had images from at least five random fields and repeated three times.

LAPC4 cells = conditions: androgen-deprived LAPC4 cells, high levels of DHT
LNCaP cells [2] = assay: Annexin-V positivity; type: cell-based, human
lipid peroxides = assay: Lipid peroxide sensor C11-BODIPY; type: cell-based, human; conditions: LNCaP cells, vs vehicle
labile iron pool (Fe2+) = assay: Measurement of the labile iron pool; type: cell-based, human; conditions: LNCaP cells, vs vehicle
Experimental: An iron assay kit (Sigma) was used to measure the labile iron pool in control and R1881 treated cells. LNCaP and LAPC4 cells were culture in a 100-mm tissue culture dish and were treated for […] before lysis in the buffer provided with the kit by snap freezing and thawing method. The lysate was cleared by centrifuging at 13000×g, and iron was measured by iron detection reagents supplied in the kit. Iron levels were calculated and normalized by the total protein present in the cell lysate. Levels of Fe^2+ were analyzed in SupraT treated cells and were normalized to vehicle control cells.

cytoplasmic DNA = assay: Confocal microscopy of cytoplasmic DNA; type: cell-based, human; conditions: combination of hydroxychloroquine and R1881
Experimental: Cells were grown on sterile coverslips in low density and were treated with R1881 (T) or vehicle control (C). After treatment, media was removed, and cells were fixed and permeabilized using chilled methanol for 10 min in deep-freezer followed by 10 min fixation in 10% natural buffered formalin at room temperature. Post-fixation, cells were blocked overnight in sterile-filtered 5% BSA in PBS at 4° C. Cells were incubated with a primary antibody, followed by a suitable fluorochrome tagged secondary antibody at 4° C. overnight. Both primary and secondary antibodies were diluted with 5% BSA in PBS. Cells were postfixed with 10% NBF for 2-3 min before mounting on a clean glass slide using Vectashield antifade mounting media (Vector Laboratories). Image acquisition was performed on the LSM 700 laser confocal microscope (Zeiss). Experiment was repeated at least three times and images from at least five random fields from each experiment were used for analysis. Images were analyzed using the image processing package Fiji.

AR-V = AR-V expression in VCaP cells exposed to R1881 (FIG. 1B); type: cell-based, human; conditions: 48-hr exposure
Source text: FIG. 1A and FIG. 1B show (FIG. 1A) Effect of synthetic androgen R1881 or bicalutamide on growth of ADT-resistant LNCaP and VCAP; (FIG. 1B) expression of full-length AR (AR-FL), AR-variants (AR-Vs) using antibody to AR N-terminal domain and AR-V& using AR-V7 specific antibody in the absence or presence of R1881;
Thelen et al., 2013. These AR-V expressing cells are profoundly growth inhibited by high dose levels of androgens, FIG. 1A.

PARP cleavage = PARP cleavage in prostate cancer cell lines; type: cell-based, human
Experimental: as §1

CRPC [3] = assay: Post hoc analysis of PSA response to subsequent hormonal therapies post-BAT (pilot study); type: in vivo, human
Experimental: As part of the aforementioned pilot study, a post hoc exploratory analysis on the effect of BAT on subsequent hormonal therapies was performed. […] All of the patients had received at least one anti-androgen prior to starting the study, Table 2. PSA response to secondary hormonal therapy after return to castrate T-levels post-BAT.

CRPC [4] = conditions: post-docetaxel setting; cited from earlier work
CRPC [5] = assay: RESTORE Phase II study (NCT02090114); type: in vivo, human; conditions: re-challenge with the agent patients progressed on before BAT
Source text: The RESTORE study (NCT02090114) was an NIH sponsored Phase II study designed to assess the safety and efficacy of BAT in men (n=30 per cohort) with CRPC progressing on enzalutamide (Cohort A) or abiraterone (Cohort B), FIG. 6A. Shah et al., 2004. The primary endpoint of the first part of the study was to assess PSA response to BAT. Secondary endpoints included objective response, safety, and quality of life. The second part of the study was to determine in BAT could re-sensitize patients to repeat exposure to second line therapy that patients were progressing on prior to receiving BAT. Thus, patients progressing on enzalutamide were re-exposed to enzalutamide after BAT and similarly for abiraterone. Both arms of this study met the primary endpoint. PSA50 Response to BAT was 30% in patient's post-enzalutamide and 18% post-abiraterone, FIG. 6B. Shah et al., 2004. […] Overall duration of response to BAT and duration of response to re-exposure was longer in the post-enzalutamide vs. post-abiraterone cohort. The PSA50 response to re-exposure to enzalutamide was 71% vs. only 21% for patients re-exposed to abiraterone, FIG. 6B. Shah et al., 2004. A third cohort was later added (Cohort C) for men progressing on ADT alone. Overall, 90 men were treated on this study over a 4-year period (2014-2018).

[6] = tested on: metastatic castration-resistant prostate cancer; conditions: cited from earlier work
CRPC [7] = conditions: enzalutamide post-abiraterone, pre-chemotherapy setting; cited from earlier work
CRPC [8] = conditions: cited from earlier work
[9] = tested on: CRPC progressing on abiraterone; assay: TRANSFORMER randomized Phase II study (NCT02286921); type: in vivo, human; conditions: for PSA50 response: patients crossing from BAT to enzalutamide
Experimental: The TRANSFORMER study (NCT02286921) was a DOD-sponsored randomized Phase II study designed to compare the efficacy of BAT vs. enzalutamide in asymptomatic men with CRPC progressing on abiraterone, FIG. 7A. The study was conducted at 17 academic centers across the U.S. The study was coordinated by the Prostate Cancer Disease Group clinical research team at Johns Hopkins, who performed regulatory oversight, study/site monitoring, and data analyses. From 2015-2018, 195 patients underwent 1:1 randomization to either standard dose enzalutamide (n=101) or BAT (n=94) at 400 mg IM every 28 days. The primary endpoint was clinical/radiographic PFS. At time of progression, patients were given the option to crossover to the alternate therapy. The trial was designed to show a 50% improvement in the primary endpoint for BAT vs. enzalutamide. […] Objective response was 24.4% for BAT and 4.2% for enzalutamide (p=0.067). Best PSA50 was 26.4% for BAT and 25.5% for enzalutamide (p=0.697).
At time of progression, 46 (49%) of patients on the […] crossed over to receive BAT and 34 (33.7%) crossed over from BAT to receive enzalutamide and were available for analysis.

[10] = Enzalutamide Phase III (PREVAIL)
[11] = initial randomized arms, post-abiraterone

C[C@]12CCC(=O)C[C@@H]1CC[C@@H]1[C@@H]2CC[C@]2(C)[C@@H](O)CC[C@@H]12 [DHT, dihydrotestosterone]
STING and MAVS activation (STING): activated STING and MAVS preferentially in LNCaP cells, however, the activation was not as robust as R1881
double strand break formation (γH2A.x foci) (LNCaP cells [1]): numerous γH2A.x foci
RelB and NIK stabilization (NIK, p52, RELB): led to stabilization of RelB and NIK
ferritin levels (ferritin): decreased ferritin levels
CXCL10 induction (CXCL10): able to induce CXCL10 (less robustly than R1881) preferentially in LNCaP cells
autophagy (autophagy; LAPC4 cells): but not in LAPC4 cells
autophagy (autophagy; LNCaP cells): robustly increased autophagy
double strand breaks (γH2A.x foci) (LAPC4 cells): numerous double strand breaks throughout the nucleus

C[C@]1(O)CC[C@H]2[C@@H]3CCC4=CC(=O)CCC4=C3C=C[C@@]21C [R1881, 17α-methyl-19-nor-δ9,11-testosterone]
Annexin-V positivity (LNCaP cells [2]): no significant increase in Annexin-V
lipid peroxides (lipid peroxides): increased
labile iron pool (labile iron pool (Fe2+)): increased
cytoplasmic DNA (cytoplasmic DNA; LAPC4 cells): did not show any cytoplasmic DNA
cytoplasmic DNA (cytoplasmic DNA; LNCaP cells): marked localization of cytoplasmic DNA
cytoplasmic DNA (cytoplasmic DNA; VCaP cells): fewer cytoplasmic DNA puncta
basal autophagy (autophagy; LAPC4 and 22Rv1 cells): remained largely unaffected
autophagy (autophagy; LNCaP and VCaP cells): notably induces autophagy
AR-V expression (AR-V): Complete loss of AR-V expression
PARP cleavage (PARP cleavage): none of the prostate cancer cell lines treated with synthetic androgen R1881 had any substantial enhancement of PARP cleavage

CNC(=O)c1ccc(N2C(=S)N(c3ccc(C#N)c(C(F)(F)F)c3)C(=O)C2(C)C)cc1F [enzalutamide]
patients with a PSA decline on second line therapy (CRPC [3]; after return to castrate testosterone levels post-BAT): 4/4
Maximum PSA decline upon secondary HT initiation (%) (CRPC [3]; per subject, secondary HT received post-study after return to castrate T-levels post-BAT): −30.4% and −99.5% and −78.3% and −53.2%
patients with >50% PSA decline on second line therapy (CRPC [3]; post-BAT): 3/4
PSA decline upon re-challenge (CRPC [3]; subjects who had previously progressed on the same agent): 53.2%
improvement in survival (CRPC [4]): approximately 5 months
PSA50 response to re-exposure post-BAT (CRPC [5]): 71%
PFS (median), clinical/radiographic ([6]; AR-V7-negative patients): 6.1 months
PSA response rate ([6]; AR-V7-negative patients): 52.6%
PSA-PFS (median) ([6]; AR-V7-negative patients): 5.9 months
PFS (median), clinical/radiographic ([6]; AR-V7-positive patients): 2.1 months
PSA response rate ([6]; AR-V7-positive patients): 0%
PSA-PFS (median) ([6]; AR-V7-positive patients): 1.4 months
median rPFS (CRPC [7]): ≤ 6 months
>50% decline PSA (%) (CRPC [8]; [10]): 78%
Objective Response (%) (CRPC [8]; [10]): 59%
PSA PFS (CRPC [8]; [10]): 11.2
TTP (m) (CRPC [8]; [10]): 20 m
hazard ratio, overall survival (CRPC [8]; enzalutamide vs placebo, 95% CI 0.60 to 0.84): 0.71
median overall survival (CRPC [8]; pre-chemotherapy setting, placebo 30.2 months): 32.4 months
Objective response ([9]; enzalutamide post-BAT patients): 28.6%
Time to PSA progression ([9]; immediately post-abiraterone): 3.8 months
increase in time to PSA progression, post-BAT vs post-abiraterone ([9]; in vivo): ~3 fold
overall survival ([9]; in vivo): 28 months
Best PSA50 [9, 11]: 25.5%
Objective response [9, 11]: 4.2%
Best PSA50 ([9]; initial randomized arms, post-abiraterone, listed as Enza): 25%
clinical/radiographic PFS ([9]; initial randomized arms, p=0.2267): 5.72 m
PSA50 response [9]: 72.7%
PSA50 response ([9]; listed as Enza): 78%
Time to PSA progression ([9]; post-BAT): 10.9 months
Time to PSA progression ([9]; post-BAT, listed as Enza): 11 months
